Activity calls are given as the source filed them. How the calls were made is not given here.
Test system: CCRIS mutagenicity, Ames/micronucleus/aberration tests
Experiment: CCRIS mutagenicity studies
[1] = Test System: AMES SALMONELLA TYPHIMURIUM, Strain/Indicator: TA100, Metabolic Activation: NONE, Method: PREINCUBATION

## C=C(C)C(=O)OCCCCCCCC
Test System: AMES SALMONELLA TYPHIMURIUM, Strain/Indicator: TA97, Metabolic Activation: HAMSTER, LIVER, S-9, AROCLOR 1254 (10 OR 30%), Method: PREINCUBATION
  mutagenic call: inactive; negative
Test System: AMES SALMONELLA TYPHIMURIUM, Strain/Indicator: TA97, Metabolic Activation: NONE, Method: PREINCUBATION
  mutagenic call: inactive; negative
Test System: AMES SALMONELLA TYPHIMURIUM, Strain/Indicator: TA97, Metabolic Activation: RAT, LIVER, S-9, AROCLOR 1254 (10 OR 30%), Method: PREINCUBATION
  mutagenic call: inactive; negative
Test System: AMES SALMONELLA TYPHIMURIUM, Strain/Indicator: TA98, Metabolic Activation: HAMSTER, LIVER, S-9, AROCLOR 1254 (10%), Method: PREINCUBATION
  mutagenic call: inactive; negative
Test System: AMES SALMONELLA TYPHIMURIUM, Strain/Indicator: TA98, Metabolic Activation: HAMSTER, LIVER, S-9, AROCLOR 1254 (30%), Method: PREINCUBATION
  mutagenic call: inactive; negative
Test System: AMES SALMONELLA TYPHIMURIUM, Strain/Indicator: TA98, Metabolic Activation: NONE, Method: PREINCUBATION
  mutagenic call: inactive; negative
Test System: AMES SALMONELLA TYPHIMURIUM, Strain/Indicator: TA98, Metabolic Activation: RAT, LIVER, S-9, AROCLOR 1254 (10%), Method: PREINCUBATION
  mutagenic call: inactive; negative
Test System: AMES SALMONELLA TYPHIMURIUM, Strain/Indicator: TA98, Metabolic Activation: RAT, LIVER, S-9, AROCLOR 1254 (30%), Method: PREINCUBATION
  mutagenic call: inactive; negative
Test System: AMES SALMONELLA TYPHIMURIUM, Strain/Indicator: TA100, Metabolic Activation: HAMSTER, LIVER, S-9, AROCLOR 1254 (10 OR 30%), Method: PREINCUBATION
  mutagenic call: inactive; negative
[1]
  mutagenic call: inactive; negative
Test System: AMES SALMONELLA TYPHIMURIUM, Strain/Indicator: TA100, Metabolic Activation: RAT, LIVER, S-9, AROCLOR 1254 (10 OR 30%), Method: PREINCUBATION
  mutagenic call: inactive; negative
Test System: AMES SALMONELLA TYPHIMURIUM, Strain/Indicator: TA1535, Metabolic Activation: HAMSTER, LIVER, AROCLOR 1254 (10 OR 30%), Method: PREINCUBATION
  mutagenic call: inactive; negative
Test System: AMES SALMONELLA TYPHIMURIUM, Strain/Indicator: TA1535, Metabolic Activation: NONE, Method: PREINCUBATION
  mutagenic call: inactive; negative
Test System: AMES SALMONELLA TYPHIMURIUM, Strain/Indicator: TA1535, Metabolic Activation: RAT, LIVER, S-9, AROCLOR 1254 (10 OR 30%), Method: PREINCUBATION
  mutagenic call: inactive; negative
Test System: AMES SALMONELLA TYPHIMURIUM, Strain/Indicator: TA1537, Metabolic Activation: HAMSTER, LIVER, S-9, AROCLOR 1254 (10%), Method: PREINCUBATION
  mutagenic call: inactive; negative
Test System: AMES SALMONELLA TYPHIMURIUM, Strain/Indicator: TA1537, Metabolic Activation: NONE, Method: PREINCUBATION
  mutagenic call: inactive; negative
Test System: AMES SALMONELLA TYPHIMURIUM, Strain/Indicator: TA1537, Metabolic Activation: RAT, LIVER, S-9, AROCLOR 1254 (10%), Method: PREINCUBATION
  mutagenic call: inactive; negative

## c1cc[c]([Sn]([c]2ccccc2)([c]2ccccc2)[c]2ccccc2)cc1
Test System: AMES SALMONELLA TYPHIMURIUM, Strain/Indicator: TA98, Metabolic Activation: NONE, Method: SUSPENSION/PLATE
  mutagenic call: inactive; negative
Test System: AMES SALMONELLA TYPHIMURIUM, Strain/Indicator: TA100, Metabolic Activation: NONE, Method: SUSPENSION/PLATE
  mutagenic call: inactive; negative

## C[C@H]1CCCC(=O)CCC/C=C/c2cc(O)cc(O)c2C(=O)O1
End Point: IN VITRO CHROMOSOMAL ABERRATIONS, Test System: BOVINE LYMPHOCYTES, Metabolic Activation: NONE
  mutagenic call: active; positive (structural changes)
End Point: In vitro chromosomal aberrations, Test System: Green monkey kidney (Vero) cells, Metabolic Activation: None
  mutagenic call: active; positive (structural changes)
End Point: In vitro chromosomal aberrations, Test System: Monkey kidney Vero cells, Metabolic Activation: None
  mutagenic call: active; positive
End Point: In vitro micronucleus, Test System: Green monkey kidney (Vero) cells, Metabolic Activation: None
  mutagenic call: active; positive
End Point: In vivo chromosomal aberrations, Test System: Bone marrow cells, Species: Mouse, Strain/Sex: Balb/C/Female, Route: Oral
  mutagenic call: active; positive (structural changes) (effect diminished by administering clay)
End Point: In vivo chromosomal aberrations, Test System: Bone marrow erythrocytes, Species: Mouse, Strain/Sex: Balb/C, Route: Intraperitoneal
  mutagenic call: active; positive (structural changes)
End Point: In vivo micronucleus, Test System: Bone marrow cells, Species: Mouse, Strain/Sex: Balb/C/Female, Route: Oral
  mutagenic call: active; positive (effect diminished by administering clay)
End Point: In vivo micronucleus, Test System: Bone marrow erythrocytes, Species: Mouse, Strain/Sex: Balb/C, Route: Intraperitoneal
  mutagenic call: active; positive (p<0.05)
End Point: UDS Monkey kidney Vero cells, Strain/Indicator: Thymidine incorporation, Metabolic Activation: None, Method: Liquid scintillation counting
  mutagenic call: active; positive. prevented by vitamin e at 25 um.
Test System: AMES SALMONELLA TYPHIMURIUM, Strain/Indicator: TA98, Metabolic Activation: HAMSTER, LIVER, S-9, AROCLOR 1254, Method: STANDARD PLATE
  mutagenic call: inactive; negative
Test System: AMES SALMONELLA TYPHIMURIUM, Strain/Indicator: TA98, Metabolic Activation: NONE, Method: STANDARD PLATE
  mutagenic call: inactive; negative
Test System: AMES SALMONELLA TYPHIMURIUM, Strain/Indicator: TA98, Metabolic Activation: RAT, LIVER, MICROSOMES, PHENOBARBITAL, Method: STANDARD PLATE
  mutagenic call: inactive; negative
Test System: AMES SALMONELLA TYPHIMURIUM, Strain/Indicator: TA98, Metabolic Activation: RAT, LIVER, S-9, AROCLOR 1254, Method: STANDARD PLATE
  mutagenic call: inactive; negative
Test System: AMES SALMONELLA TYPHIMURIUM, Strain/Indicator: TA98, Metabolic Activation: RAT, LIVER, S-9, Method: STANDARD PLATE
  mutagenic call: inactive; negative
Test System: AMES SALMONELLA TYPHIMURIUM, Strain/Indicator: TA100, Metabolic Activation: HAMSTER, LIVER, S-9, AROCLOR 1254, Method: STANDARD PLATE
  mutagenic call: inactive; negative
[1]
  mutagenic call: inactive; negative
Test System: AMES SALMONELLA TYPHIMURIUM, Strain/Indicator: TA100, Metabolic Activation: RAT, LIVER, MICROSOMES, PHENOBARBITAL, Method: STANDARD PLATE
  mutagenic call: inactive; negative
Test System: AMES SALMONELLA TYPHIMURIUM, Strain/Indicator: TA100, Metabolic Activation: RAT, LIVER, S-9, AROCLOR 1254, Method: STANDARD PLATE
  mutagenic call: inactive; negative
Test System: AMES SALMONELLA TYPHIMURIUM, Strain/Indicator: TA100, Metabolic Activation: RAT, LIVER, S-9, PHENOBARBITAL, Method: PREINCUBATION
  mutagenic call: inactive; negative
Test System: AMES SALMONELLA TYPHIMURIUM, Strain/Indicator: TA100, Metabolic Activation: RAT, LIVER, S-9, Method: STANDARD PLATE
  mutagenic call: inactive; negative; toxicity at 1000 ug/plate
Test System: AMES SALMONELLA TYPHIMURIUM, Strain/Indicator: TA1535, Metabolic Activation: HAMSTER, LIVER, S-9, AROCLOR 1254, Method: STANDARD PLATE
  mutagenic call: inactive; negative
Test System: AMES SALMONELLA TYPHIMURIUM, Strain/Indicator: TA1535, Metabolic Activation: NONE, Method: STANDARD PLATE
  mutagenic call: inactive; negative
Test System: AMES SALMONELLA TYPHIMURIUM, Strain/Indicator: TA1535, Metabolic Activation: RAT, LIVER, S-9, AROCLOR 1254, Method: STANDARD PLATE
  mutagenic call: inactive; negative
Test System: AMES SALMONELLA TYPHIMURIUM, Strain/Indicator: TA1535, Metabolic Activation: RAT, LIVER, S-9, Method: STANDARD PLATE
  mutagenic call: inactive; negative
Test System: AMES SALMONELLA TYPHIMURIUM, Strain/Indicator: TA1537, Metabolic Activation: HAMSTER, LIVER, S-9, AROCLOR 1254, Method: STANDARD PLATE
  mutagenic call: inactive; negative
Test System: AMES SALMONELLA TYPHIMURIUM, Strain/Indicator: TA1537, Metabolic Activation: NONE, Method: STANDARD PLATE
  mutagenic call: inactive; negative
Test System: AMES SALMONELLA TYPHIMURIUM, Strain/Indicator: TA1537, Metabolic Activation: RAT, LIVER, S-9, AROCLOR 1254, Method: STANDARD PLATE
  mutagenic call: inactive; negative
Test System: AMES SALMONELLA TYPHIMURIUM, Strain/Indicator: TA1537, Metabolic Activation: RAT, LIVER, S-9, Method: STANDARD PLATE
  mutagenic call: inactive; negative; toxicity at 500 and 1000 ug/plate
Test System: AMES SALMONELLA TYPHIMURIUM, Strain/Indicator: TA1538, Metabolic Activation: HAMSTER, LIVER, S-9, AROCLOR 1254, Method: STANDARD PLATE
  mutagenic call: inactive; negative
Test System: AMES SALMONELLA TYPHIMURIUM, Strain/Indicator: TA1538, Metabolic Activation: RAT, LIVER, S-9, AROCLOR 1254, Method: STANDARD PLATE
  mutagenic call: inactive; negative
Test System: AMES SALMONELLA TYPHIMURIUM, Strain/Indicator: TA1538, Metabolic Activation: RAT, LIVER, S-9, Method: STANDARD PLATE
  mutagenic call: inactive; negative; toxicity at 1000 ug/plate

## CN1CCN(N=O)CC1
Test System: CHINESE HAMSTER V-79, Strain/Indicator: V-79/8-AZAGUANINE, Metabolic Activation: RAT, LIVER, S-15, PHENOBARBITAL, Method: STANDARD PLATE
  mutagenic call: active; positive
